Measured values from publication PMC7239035 (Chemistry, an Asian journal, 2019).

Molecular target: β2AR (human β2 adrenergic receptor) (Homo sapiens, UniProt P07550)
Assay: radioligand binding
Settings: labelled compound; antagonist; detergent micelles (PPM or DDM, CMC+0.2 wt%); room temperature

β2AR (human β2 adrenergic receptor), sequence (P07550 whole entry): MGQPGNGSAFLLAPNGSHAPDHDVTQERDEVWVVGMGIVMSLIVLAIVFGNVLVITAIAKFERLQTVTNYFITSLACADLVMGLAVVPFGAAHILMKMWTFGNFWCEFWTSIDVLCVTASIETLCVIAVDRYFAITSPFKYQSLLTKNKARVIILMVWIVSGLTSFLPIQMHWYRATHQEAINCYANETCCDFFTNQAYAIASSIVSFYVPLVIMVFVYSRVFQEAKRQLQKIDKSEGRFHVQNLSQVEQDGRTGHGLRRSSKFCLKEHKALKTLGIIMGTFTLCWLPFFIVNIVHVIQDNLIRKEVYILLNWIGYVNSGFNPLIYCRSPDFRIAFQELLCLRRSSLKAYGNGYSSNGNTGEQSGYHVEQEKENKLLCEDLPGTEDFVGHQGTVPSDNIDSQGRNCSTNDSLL

CCCc1ccccc1OCC(O)CNC(C)C (stereo not shown) [[3H]-dihydroalprenolol]
radioligand binding: receptor ability to bind the radio-labelled antagonist ([^3H]-dihydroalprenolol (DHA))
